Patent US12178825B2, “Method and compositions for forming a copper-containing complex and uses thereof” (COLD SPRING HARBOR LABORATORY, priority 2017, dated 2024)

What was measured:
[1] = tested on: AZD6244-insensitive cells; test: Immunoblot of phospho-MEK and phospho-Erk; format: cell-based; settings: AZD6244-insensitive (resistant) cells
From the text: (§1) Equal quantities of lysates were isolated from indicated cell lines and then resolved by SDS-PAGE and immunoblotted with one of the following primary antibodies: mouse anti-MEK1/2, rabbit anti-p-PAK1, rabbit anti-PAK1, rabbit anti-ERK1/2, rabbit anti-phospho(Ser 217/221)-MEK1/2, rabbit anti-phospho(Thr 202/Tyr 204)-ERK1/2, rabbit anti-phospho (Ser 338)-c-RAF, rabbit anti-RAF, rabbit anti-phospho (Ser 112)-BAD and rabbit anti-BAD (Cell Signaling Technology), mouse anti-β-actin (Sigma), followed by detection with one of the following horseradish peroxidase-conjugated secondary antibodies: goat anti-rabbit IgG, goat anti-mouse IgG (Invitrogen), mouse anti-rabbit light-chain-specific IgG (Jackson ImmunoResearch Laboratories) using enhanced chemiluminescence (ECL; GE Healthcare) or SuperSignal West Femto Chemiluminescent substrate (Pierce) detection reagents.

[2] = tested on: AZD6244-sensitive cells; test: Immunoblot of phospho-MEK and phospho-Erk; format: cell-based; settings: 1-2 μM AZD6244
From the text: as §1

[3] = tested on: MDA-MB-468 cells; test: Cell survival; format: cell-based
Method: (§2) The MTT assay was used to evaluate cell survival in the absence and presence of different compounds. The thiazolyl blue tetrazolium bromide (MTT) was dissolved in phosphate buffered saline (PBS) at a concentration of 5 mg/ml, filtered, and stored at 4° C. About 10,000 cells were seeded into a 96-well plate and cultured in growth medium containing serum. After 24 hours, cells were treated with the indicated concentrations of DPM-1001 or DPM-1003 (0-100 uM) for 2 hrs. Following which 20 μl MTT was added into each well. An ELISA plate reader (Biotek, Winooski, Vermont, USA) was used to measure the optical density at 490 nm.

[4] = tested on: MCF-7; test: Cell survival; format: cell-based
Method: as §2

[5] = tested on: SUM159; test: Cell survival; format: cell-based
Method: as §2

[6] = tested on: SUM149 cells; test: Cell survival; format: cell-based
Method: as §2

[7] = tested on: HCC70 cells; test: Cell survival; format: cell-based
Method: as §2

[8] = tested on: MDA-MB-231 cells; test: Cell survival; format: cell-based
Method: as §2
MDA-MB-231 cells (1×10^5) were seeded in 6 cm plates in growth medium. The cells were untreated or treated with DPM-1001 (0.5, 1, 2 and 5 μM), DPM-1003 (0.5, 1, 2 and 5 μM) or TTM (25, 50, 100 μM) for 1 h. Following which, media was gently aspirated and cells were washed with PBS. To each plate 0.5 ml of crystal violet (0.5%) was added and incubated in dark for 10 minutes at room temperature. The staining solution was removed and plates were washed with PBS (three times). The cells stained with the dye were imaged.

[9] = target: T1, PAK1 (Homo sapiens, UniProt Q13153); test: Cu-binding assay with kinase; settings: read-out: Kd, copper binding to PAK1
Method: Direct binding assays were performed using radiolabelled copper (64 Cu^2+). Varying concentration of radiolabeled copper (0-10 uM) was incubated with recombinant PAK1 (100 nM). Excess copper was removed by running the samples through a desalting column. The amount of metal bound to the protein was quantitated directly by scintillation counting.

[10] = target: MEK1 (Homo sapiens, UniProt Q02750); test: Cu-binding assay with kinase; settings: read-out: Kd, copper binding to MEK1
[11] = tested on: ATP7B-knockdown HepG2 cells; test: Copper-induced toxicity, MTT cell survival; format: cell-based; settings: copper concentrations greater than 0.5 mM
Method: HepG2 cells purchased from ATCC were cultured in RPMI media containing 10% FBS, 5% CO2 at 37 C. Control (AG09319) and Wilson's disease patient-derived fibroblasts (GM00032, GM00033, GM05257, GM12158, GM05798 and GM11778) were obtained from Coriell Biorepository and cultured in DMEM, 10% FBS, 5% CO2 at 37° C.
For cell survival assays, 10,000 cells were seeded in a 96 well plate and cultured until fully confluent (90%). To these cells, ATP7B siRNAs or scrambled siRNA (negative control) purchased from Qiagen and Santa Cruz Biotechnology were transfected. Lipofectamine RNAiMAX reagent (Thermofischer) and siRNAs were diluted into a final volume of 100 μl in Opti-MEM (Gibco). The mixture was incubated at room temperature for 30 min, following which 800 μl of Opti-MEM was added to the mixture. The above transfection solution was overlaid onto cells at a final concentration of 5 nM siRNA. Transfection of HepG2 cells with scrambled siRNA served as negative control. Twelve hours after the transfection, complete media was added to each well. Following which, knockdown efficiency was checked (24 hours later) and cells were exposed to varying concentration of copper (0-1 mM) for 12 h and cell viability was determined using the MTT assay as previously described (37). […]

[12] = target: T1, PAK1; test: Kinase activity assay (ADP-Glow, MBP substrate); format: biochemical; settings: in the presence of Cu(II)
Method: In brief, recombinant PAK1 (20 nM) or recombinant MEK1 (20 nM) were incubated for 30 min in 180 μl of kinase buffer in the presence or absence of CuSO4 (5 μM). The activity of the kinase was monitored using MBP as substrate by ADP-Glow assay (Promega) as per user's manual.

T1 sequence (Q13153 whole entry): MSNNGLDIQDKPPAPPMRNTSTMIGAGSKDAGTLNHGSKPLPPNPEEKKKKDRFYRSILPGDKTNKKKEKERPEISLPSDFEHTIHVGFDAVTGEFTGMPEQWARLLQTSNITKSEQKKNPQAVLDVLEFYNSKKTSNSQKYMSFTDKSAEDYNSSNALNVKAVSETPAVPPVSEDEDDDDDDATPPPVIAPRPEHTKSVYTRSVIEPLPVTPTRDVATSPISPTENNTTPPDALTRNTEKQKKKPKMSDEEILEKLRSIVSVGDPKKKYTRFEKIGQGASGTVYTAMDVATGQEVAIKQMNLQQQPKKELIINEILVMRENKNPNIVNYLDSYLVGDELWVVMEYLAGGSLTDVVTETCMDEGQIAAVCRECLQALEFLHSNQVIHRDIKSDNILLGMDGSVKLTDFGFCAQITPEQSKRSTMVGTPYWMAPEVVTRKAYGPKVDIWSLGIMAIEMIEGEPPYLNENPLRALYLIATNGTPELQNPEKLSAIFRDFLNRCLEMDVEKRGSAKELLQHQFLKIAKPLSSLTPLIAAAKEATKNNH
Chain of MEK1 (Q02750 whole entry): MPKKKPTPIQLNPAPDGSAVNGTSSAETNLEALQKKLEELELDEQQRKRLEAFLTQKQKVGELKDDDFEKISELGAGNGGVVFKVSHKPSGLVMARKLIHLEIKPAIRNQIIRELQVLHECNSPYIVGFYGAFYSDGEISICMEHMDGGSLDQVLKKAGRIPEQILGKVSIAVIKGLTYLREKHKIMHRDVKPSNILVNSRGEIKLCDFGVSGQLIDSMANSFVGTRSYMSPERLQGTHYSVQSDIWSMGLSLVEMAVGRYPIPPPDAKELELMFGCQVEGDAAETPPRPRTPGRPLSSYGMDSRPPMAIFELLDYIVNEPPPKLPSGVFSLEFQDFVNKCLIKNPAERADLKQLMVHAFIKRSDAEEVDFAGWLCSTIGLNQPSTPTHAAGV

Row | Compound | phospho-MEK and phospho-Erk [1] | phospho-MEK and phospho-Erk [2] | survival of MDA-MB-468 cells [3] | survival of MCF-7 cells [4] | survival of SUM159 cells [5] | survival of SUM149 cells [6] | survival of HCC70 cells [7] | survival of MDA-MB-231 cells [8] | Kd [9] [nM] | Kd [10] [nM] | survival of ATP7B-KD1 [11] | Vmax of PAK1 kinase activity [12]
1 | Cn1cnc2c(F)c(Nc3ccc(Br)cc3Cl)c(C(=O)NOCCO)cc21 [AZD6244, 6-(4-bromo-2-chloroanilino)-7-fluoro-N-(2-hydroxyethoxy)-3-methylbenzimidazole-5-carboxamide] | without effect | reduced phospho-MEK and phospho-Erk | without effect on survival | inhibited cell survival | inhibited cell survival | without effect on survival | without effect on survival | inhibited cell survival |  |  |  | 
2 | [Cu+2] [copper] |  |  |  |  |  |  |  |  | 15 | 5 | less than 20% | 834.4
